Experimental data: ChEMBL document CHEMBL1201862, “PubChem BioAssay data set” (2004)
Activity calls are given as the source filed them.

Tests used:
[1] = target: T1, Voltage-gated N-type calcium channel alpha-1B subunit/Amyloid beta A4 precursor protein-binding family A member 1 (Homo sapiens, UniProt Q00975+Q02410); assay type: protein assay
[2] = target: T1, Voltage-gated N-type calcium channel alpha-1B subunit/Amyloid beta A4 precursor protein-binding family A member 1; assay type: protein assay; remark: listed apart in the source
cells [3] = assay type: functional
Cytochrome P450 2C9 = Cytochrome P450 2C9 (Homo sapiens, UniProt P11712)
fMet-Leu-Phe receptor = target: T2, fMet-Leu-Phe receptor (Homo sapiens, UniProt P21462); test: FPR ligands, dose response (AID 519); assay type: functional
T2 sequence (P21462 whole entry): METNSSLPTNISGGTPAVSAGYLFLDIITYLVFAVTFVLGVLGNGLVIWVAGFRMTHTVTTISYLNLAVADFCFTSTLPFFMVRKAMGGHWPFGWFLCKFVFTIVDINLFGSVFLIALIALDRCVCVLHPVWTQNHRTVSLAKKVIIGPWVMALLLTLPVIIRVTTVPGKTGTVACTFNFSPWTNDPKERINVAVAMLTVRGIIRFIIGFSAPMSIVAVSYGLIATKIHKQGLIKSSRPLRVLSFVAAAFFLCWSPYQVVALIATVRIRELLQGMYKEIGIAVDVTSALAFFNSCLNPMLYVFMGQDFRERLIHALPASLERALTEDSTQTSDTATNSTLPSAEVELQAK

Cytochrome P450 2C19 = Cytochrome P450 2C19 (Homo sapiens, UniProt P33261); test: Cytochrome panel assay with activity outcomes. Panel member name: p450-cyp2c19 Compounds with AC50 equal or less than 10 uM are considered active; assay type: functional; details: read-out: AC50
[4] = target: T3, Short transient receptor potential channel 4 (Mus musculus, UniProt Q9QUQ5); test: mouse TRPC4 channel inhibitors, dose response, cell-based, HEK293 TRPC4/mu-opioid, Fluo-4 calcium (AID 434942); assay type: functional;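 further: potency of inhibitors blocking the TRPC4 calcium response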
T3 sequence (Q9QUQ5 whole entry): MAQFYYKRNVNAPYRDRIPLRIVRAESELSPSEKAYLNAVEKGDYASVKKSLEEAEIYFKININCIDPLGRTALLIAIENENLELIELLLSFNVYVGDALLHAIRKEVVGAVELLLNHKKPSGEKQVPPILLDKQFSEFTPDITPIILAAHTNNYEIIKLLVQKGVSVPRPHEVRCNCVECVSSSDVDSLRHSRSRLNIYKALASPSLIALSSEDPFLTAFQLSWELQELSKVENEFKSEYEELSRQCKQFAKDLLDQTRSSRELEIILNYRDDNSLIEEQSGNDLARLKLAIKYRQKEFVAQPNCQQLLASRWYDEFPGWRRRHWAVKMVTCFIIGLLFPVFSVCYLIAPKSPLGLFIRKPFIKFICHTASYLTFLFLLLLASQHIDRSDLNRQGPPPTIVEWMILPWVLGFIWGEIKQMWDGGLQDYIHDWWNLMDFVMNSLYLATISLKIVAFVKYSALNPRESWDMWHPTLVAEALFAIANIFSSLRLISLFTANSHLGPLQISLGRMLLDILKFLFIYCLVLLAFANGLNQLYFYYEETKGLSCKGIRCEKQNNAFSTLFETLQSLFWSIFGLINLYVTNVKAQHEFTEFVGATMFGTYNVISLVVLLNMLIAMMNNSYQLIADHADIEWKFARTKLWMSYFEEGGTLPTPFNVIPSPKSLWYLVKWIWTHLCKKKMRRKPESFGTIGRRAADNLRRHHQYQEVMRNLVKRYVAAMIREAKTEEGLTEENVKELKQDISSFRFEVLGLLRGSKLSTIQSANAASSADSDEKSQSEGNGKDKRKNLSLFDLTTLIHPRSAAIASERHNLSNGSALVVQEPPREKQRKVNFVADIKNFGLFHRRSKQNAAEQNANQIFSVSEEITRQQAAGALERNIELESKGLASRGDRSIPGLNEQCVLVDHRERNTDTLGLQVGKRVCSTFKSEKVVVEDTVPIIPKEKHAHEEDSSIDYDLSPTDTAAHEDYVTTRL

[5] = target: T4, Heat shock factor protein 1 (Mus musculus, UniProt P38532); test: inhibition of MG132-induced HSE-luciferase signal, confirmation, cell-based, NIH3T3, luminescence, dose retest (AID 2382); assay type: functional;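 further: NIH3T3 fibroblasts with HSF1-driven luciferase reporter stressed by proteasome inhibitor MG132; luminescence from HSF1-driven luciferase expression after 8 hours of MG132 stress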
T4 sequence (P38532 whole entry): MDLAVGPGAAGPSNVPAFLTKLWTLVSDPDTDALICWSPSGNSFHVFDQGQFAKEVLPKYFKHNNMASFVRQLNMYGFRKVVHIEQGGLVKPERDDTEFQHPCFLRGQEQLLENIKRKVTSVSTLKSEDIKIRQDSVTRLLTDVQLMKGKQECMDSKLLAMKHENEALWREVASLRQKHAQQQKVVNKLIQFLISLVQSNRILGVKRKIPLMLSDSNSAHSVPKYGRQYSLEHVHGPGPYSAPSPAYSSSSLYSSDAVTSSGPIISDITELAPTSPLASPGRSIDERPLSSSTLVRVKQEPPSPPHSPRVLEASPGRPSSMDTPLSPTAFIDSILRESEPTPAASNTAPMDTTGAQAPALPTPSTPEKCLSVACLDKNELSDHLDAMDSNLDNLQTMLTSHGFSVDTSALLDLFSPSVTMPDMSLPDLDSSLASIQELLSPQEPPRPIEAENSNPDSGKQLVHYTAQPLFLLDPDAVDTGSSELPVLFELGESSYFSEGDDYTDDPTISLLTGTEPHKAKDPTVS

[6] = Shn3 3'UTR reporter inhibitors, dose response, cell-based, Clone20 osteoblasts, firefly luciferase, cherry-picked (AID 624132); assay type: functional;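 further: firefly luciferase luminescence from reporter carrying the Shn3 3'UTR in osteoblasts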
[7] = control 3'UTR Renilla luciferase suppression, dose response, counter-screen for Shn3 inhibitor project, cell-based, Clone20-Shn3RL, cherry-picked (AID 624133); assay type: functional
INS1 = test: beta cell apoptosis inhibitors, cytokine rescue, dose response, luminescence, retest (AID 449756); assay type: functional, cell-based; details: Rattus norvegicus;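 further: cell death triggered by IL-1 beta plus TNF-alpha plus IFN-gamma mixture; protective hits raise ATP signal compared with cytokine alone wells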
[8] = HepG2 cell cytotoxicity, dose response, cytotoxicity control for Shn3 inhibitor project, CellTiter-Glo, cherry-picked (AID 624134); assay type: functional, cell-based
[9] = cytotoxicity in HEK-293T cells, dose response, cytotoxicity control for TCR NF-kB inhibitor project, luminescence, T-cell screen hits (AID 489026); assay type: functional, cell-based;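 further: cells exposed to compound about 14 hours before the viability readout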
[10] = cytotoxicity toward DRD oncogenic fibroblasts, dose response, cell-based, non-viral oncogenic, luminescence (AID 1934); assay type: functional; details: Homo sapiens
[11] = inhibitors of firefly luciferase expression or activity, dose response, H4 neuroglioma cells, luminescence (AID 1990); assay type: functional, cell-based
BJ [12] = test: cells; assay type: functional, cell-based; details: Homo sapiens
BJ [13] = test: cytotoxicity toward BJ-TERT fibroblasts, dose response, cell-based, RAS-independent, luminescence (AID 1933); assay type: functional; details: Homo sapiens
[14] = inhibitors of SNCA 5'UTR-driven reporter translation, confirmation, H4 neuroglioma cells, luminescence (AID 1988); assay type: functional, cell-based
BJ [15] = test: cytotoxicity toward BJ-TERT-LT-ST fibroblasts, dose response, cell-based, RAS-independent, luminescence (AID 1935); assay type: functional; details: Homo sapiens;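 further: BJ fibroblasts immortalized with TERT plus LT and ST oncogenes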
[16] = Luminescence Cell-Based Dose Response HTS to Identify Inhibitors of 5'UTR Stem-Loop Driven Prion Protein mRNA Translation in H4 Neuroglioblastoma Cells. [Related pubchem assays: 1827 (Project Summary), 1813 (Primary HTS)]; assay type: functional
cells [17] = assay type: functional, cell-based
[18] = test system: Streptococcus sp. 'group A'; test: growth inhibition of control SK(-) GAS strain, dose response, counter-screen for streptokinase expression inhibitor project, luminescence, kanamycin, BacTiterGlo, confirmation (AID 1900); assay type: functional, organism-based
Streptococcus = test: Group A Streptococcus viability loss, dose response, counter-screen for streptokinase expression inhibitor project, luminescence, BacTiterGlo (AID 1915); assay type: functional, organism-based;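 further: potency for reduction of bacterial viability or growth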
[19] = target: Induced myeloid leukemia cell differentiation protein Mcl-1 (Homo sapiens, UniProt Q07820); assay type: functional
cells [20] = assay type: functional, cell-based; remark: listed apart in the source
Cytochrome P450 2D6 = Cytochrome P450 2D6 (Homo sapiens, UniProt P10635);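 further: CYP2D6 member of a cytochrome P450 panel assay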
[21] = P. falciparum Dd2 growth inhibitors, dose response, SYBR Green, cherry-picked samples (AID 1159567); assay type: functional, cell-based
P388/ADR = test: cells; assay type: functional; details: Mus musculus
P388 = test: cells; assay type: functional; details: Mus musculus
SN12K1 = test: cells; assay type: functional; details: Homo sapiens
Large T antigen = Large T antigen (Simian virus 40, UniProt P03070); assay type: functional, Betapolyomavirus macacae;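 further: Confirmatory-stage PubChem screen for compounds that inhibit SV40 T antigen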

T1 sequence (Q00975 whole entry): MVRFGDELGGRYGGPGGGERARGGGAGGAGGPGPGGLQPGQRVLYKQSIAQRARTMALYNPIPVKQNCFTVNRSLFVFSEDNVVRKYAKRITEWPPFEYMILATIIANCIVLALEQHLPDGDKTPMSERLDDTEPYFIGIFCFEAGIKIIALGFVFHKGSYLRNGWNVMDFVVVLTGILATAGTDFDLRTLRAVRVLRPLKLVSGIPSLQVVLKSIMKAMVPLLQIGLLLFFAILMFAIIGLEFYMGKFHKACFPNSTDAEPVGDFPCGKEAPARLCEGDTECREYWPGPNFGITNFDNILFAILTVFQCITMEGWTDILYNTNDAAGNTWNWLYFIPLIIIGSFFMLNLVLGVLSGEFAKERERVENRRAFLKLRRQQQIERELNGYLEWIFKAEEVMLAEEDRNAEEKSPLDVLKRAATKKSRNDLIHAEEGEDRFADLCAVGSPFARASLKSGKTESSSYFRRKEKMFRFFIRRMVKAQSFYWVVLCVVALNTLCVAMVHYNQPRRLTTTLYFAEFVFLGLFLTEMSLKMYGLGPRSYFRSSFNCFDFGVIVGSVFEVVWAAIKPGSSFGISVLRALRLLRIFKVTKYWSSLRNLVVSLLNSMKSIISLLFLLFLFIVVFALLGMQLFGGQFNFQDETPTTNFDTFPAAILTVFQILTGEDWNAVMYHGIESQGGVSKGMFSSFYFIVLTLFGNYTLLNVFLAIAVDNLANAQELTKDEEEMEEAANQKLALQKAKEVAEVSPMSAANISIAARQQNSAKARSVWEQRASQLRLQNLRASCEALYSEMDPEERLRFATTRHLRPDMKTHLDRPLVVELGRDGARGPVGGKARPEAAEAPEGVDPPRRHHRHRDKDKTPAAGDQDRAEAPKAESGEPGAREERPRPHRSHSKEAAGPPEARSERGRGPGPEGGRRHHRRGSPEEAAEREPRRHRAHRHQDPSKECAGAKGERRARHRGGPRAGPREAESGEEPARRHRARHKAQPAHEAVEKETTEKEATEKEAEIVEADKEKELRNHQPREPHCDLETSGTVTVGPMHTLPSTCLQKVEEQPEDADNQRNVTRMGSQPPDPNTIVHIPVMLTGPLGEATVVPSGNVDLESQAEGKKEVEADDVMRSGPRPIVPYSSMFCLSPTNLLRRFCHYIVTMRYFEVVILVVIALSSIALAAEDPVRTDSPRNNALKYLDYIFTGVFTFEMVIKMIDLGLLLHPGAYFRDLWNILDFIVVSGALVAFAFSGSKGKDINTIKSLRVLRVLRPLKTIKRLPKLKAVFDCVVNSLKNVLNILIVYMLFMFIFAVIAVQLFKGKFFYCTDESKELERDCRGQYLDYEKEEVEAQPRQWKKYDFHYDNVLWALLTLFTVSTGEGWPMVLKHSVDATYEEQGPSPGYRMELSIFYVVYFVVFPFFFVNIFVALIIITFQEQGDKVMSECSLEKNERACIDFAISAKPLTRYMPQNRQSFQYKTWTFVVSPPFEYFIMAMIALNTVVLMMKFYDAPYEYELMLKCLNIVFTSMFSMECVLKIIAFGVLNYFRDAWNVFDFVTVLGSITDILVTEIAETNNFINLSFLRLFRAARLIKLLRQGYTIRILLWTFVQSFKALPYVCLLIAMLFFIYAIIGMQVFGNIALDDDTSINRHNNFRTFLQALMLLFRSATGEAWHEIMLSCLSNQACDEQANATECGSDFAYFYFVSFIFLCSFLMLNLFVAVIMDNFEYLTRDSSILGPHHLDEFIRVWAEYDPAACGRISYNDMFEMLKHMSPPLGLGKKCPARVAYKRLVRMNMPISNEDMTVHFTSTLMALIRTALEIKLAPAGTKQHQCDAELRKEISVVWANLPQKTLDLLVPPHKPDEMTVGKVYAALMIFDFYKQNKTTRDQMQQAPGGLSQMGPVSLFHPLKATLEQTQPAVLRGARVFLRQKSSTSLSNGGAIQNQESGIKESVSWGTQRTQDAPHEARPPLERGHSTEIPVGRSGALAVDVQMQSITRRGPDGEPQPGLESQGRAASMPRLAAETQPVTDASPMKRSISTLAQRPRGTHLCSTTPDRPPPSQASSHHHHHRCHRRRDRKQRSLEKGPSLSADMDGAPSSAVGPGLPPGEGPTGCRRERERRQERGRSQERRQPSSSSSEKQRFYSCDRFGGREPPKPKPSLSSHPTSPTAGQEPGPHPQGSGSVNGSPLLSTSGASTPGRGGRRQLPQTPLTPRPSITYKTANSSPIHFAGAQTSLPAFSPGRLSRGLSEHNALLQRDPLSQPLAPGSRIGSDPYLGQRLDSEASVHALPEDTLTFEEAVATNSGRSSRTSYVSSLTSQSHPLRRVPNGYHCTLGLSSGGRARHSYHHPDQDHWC
T1 sequence (Q02410 whole entry): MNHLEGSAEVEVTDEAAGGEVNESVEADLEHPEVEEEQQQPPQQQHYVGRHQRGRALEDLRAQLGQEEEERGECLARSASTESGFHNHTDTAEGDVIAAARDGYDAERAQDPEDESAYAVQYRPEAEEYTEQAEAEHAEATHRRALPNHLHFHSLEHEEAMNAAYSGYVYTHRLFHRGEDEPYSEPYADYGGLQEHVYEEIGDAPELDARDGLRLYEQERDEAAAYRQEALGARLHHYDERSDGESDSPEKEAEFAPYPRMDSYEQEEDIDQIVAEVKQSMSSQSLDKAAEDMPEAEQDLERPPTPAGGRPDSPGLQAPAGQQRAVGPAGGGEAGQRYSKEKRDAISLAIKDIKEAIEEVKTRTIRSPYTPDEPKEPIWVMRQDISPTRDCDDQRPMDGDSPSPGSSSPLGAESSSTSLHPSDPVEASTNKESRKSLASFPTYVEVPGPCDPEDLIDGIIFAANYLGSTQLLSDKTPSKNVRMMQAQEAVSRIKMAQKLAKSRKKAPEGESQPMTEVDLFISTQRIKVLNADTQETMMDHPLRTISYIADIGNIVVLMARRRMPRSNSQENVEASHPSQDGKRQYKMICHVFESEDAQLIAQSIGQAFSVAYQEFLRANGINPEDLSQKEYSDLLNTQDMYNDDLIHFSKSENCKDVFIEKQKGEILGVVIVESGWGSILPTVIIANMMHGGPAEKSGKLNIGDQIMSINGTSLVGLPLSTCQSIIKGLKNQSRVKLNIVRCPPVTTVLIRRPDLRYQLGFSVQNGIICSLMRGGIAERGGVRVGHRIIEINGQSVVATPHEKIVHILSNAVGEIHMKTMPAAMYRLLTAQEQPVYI
Cytochrome P450 2C9, sequence (P11712 whole entry): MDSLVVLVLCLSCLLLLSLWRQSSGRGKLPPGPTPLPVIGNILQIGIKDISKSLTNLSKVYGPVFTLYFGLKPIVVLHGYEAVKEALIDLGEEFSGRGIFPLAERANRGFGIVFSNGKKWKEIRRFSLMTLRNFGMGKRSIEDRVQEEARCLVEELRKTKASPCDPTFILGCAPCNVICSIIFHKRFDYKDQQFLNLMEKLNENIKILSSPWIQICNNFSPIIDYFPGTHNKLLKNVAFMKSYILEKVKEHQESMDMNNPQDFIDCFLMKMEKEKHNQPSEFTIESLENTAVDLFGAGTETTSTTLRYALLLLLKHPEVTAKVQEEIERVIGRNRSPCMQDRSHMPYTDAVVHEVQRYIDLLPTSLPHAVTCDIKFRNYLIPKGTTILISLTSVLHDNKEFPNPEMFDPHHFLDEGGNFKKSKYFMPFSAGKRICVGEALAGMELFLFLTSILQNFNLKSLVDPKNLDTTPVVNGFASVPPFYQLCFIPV
Induced myeloid leukemia cell differentiation protein Mcl-1, sequence (Q07820 whole entry): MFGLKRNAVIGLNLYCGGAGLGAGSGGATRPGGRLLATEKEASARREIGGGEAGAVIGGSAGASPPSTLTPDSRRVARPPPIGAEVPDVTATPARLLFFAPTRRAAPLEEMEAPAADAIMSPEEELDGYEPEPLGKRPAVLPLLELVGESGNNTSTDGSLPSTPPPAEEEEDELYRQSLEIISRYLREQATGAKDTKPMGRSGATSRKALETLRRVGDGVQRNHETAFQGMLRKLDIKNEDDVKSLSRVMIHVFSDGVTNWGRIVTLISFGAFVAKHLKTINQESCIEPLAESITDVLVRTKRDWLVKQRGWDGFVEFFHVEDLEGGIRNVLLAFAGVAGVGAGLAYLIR
Cytochrome P450 2D6, sequence (P10635 whole entry): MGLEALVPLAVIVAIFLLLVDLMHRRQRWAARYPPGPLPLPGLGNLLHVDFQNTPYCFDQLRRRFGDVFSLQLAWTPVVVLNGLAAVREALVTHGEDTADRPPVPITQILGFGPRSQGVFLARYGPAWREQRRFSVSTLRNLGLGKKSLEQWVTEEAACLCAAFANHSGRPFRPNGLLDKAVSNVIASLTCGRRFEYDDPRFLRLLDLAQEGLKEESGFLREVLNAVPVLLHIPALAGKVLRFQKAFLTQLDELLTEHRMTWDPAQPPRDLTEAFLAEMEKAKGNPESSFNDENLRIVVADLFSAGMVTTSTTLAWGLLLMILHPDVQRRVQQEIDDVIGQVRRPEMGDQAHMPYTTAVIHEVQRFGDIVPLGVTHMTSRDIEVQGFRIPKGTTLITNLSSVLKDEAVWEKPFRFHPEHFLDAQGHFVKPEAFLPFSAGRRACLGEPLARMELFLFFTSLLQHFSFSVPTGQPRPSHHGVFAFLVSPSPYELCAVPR
Cytochrome P450 2C19, sequence (P33261 whole entry): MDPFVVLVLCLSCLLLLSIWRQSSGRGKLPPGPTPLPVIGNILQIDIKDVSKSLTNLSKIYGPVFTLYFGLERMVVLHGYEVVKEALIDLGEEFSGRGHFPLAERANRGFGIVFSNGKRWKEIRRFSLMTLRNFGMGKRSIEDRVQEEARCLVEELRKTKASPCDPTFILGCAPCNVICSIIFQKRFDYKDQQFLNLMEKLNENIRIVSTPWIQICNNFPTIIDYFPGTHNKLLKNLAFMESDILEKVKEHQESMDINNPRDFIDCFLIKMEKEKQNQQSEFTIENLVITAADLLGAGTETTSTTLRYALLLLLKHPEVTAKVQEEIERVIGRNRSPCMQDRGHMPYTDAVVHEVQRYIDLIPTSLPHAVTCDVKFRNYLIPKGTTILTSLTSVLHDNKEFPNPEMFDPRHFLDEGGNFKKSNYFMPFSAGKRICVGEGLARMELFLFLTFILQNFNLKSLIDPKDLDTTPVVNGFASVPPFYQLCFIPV

Cc1cccc(-n2cnc3c(c2=O)c2nc4ccccc4nc2n3Cc2ccco2)c1
IC50 [1]: 2.16 µM (active)
IC50 [2]: 0.871 µM (active)

CC(C)c1ccc(OCC(=O)NNC(=O)c2cnccn2)cc1
IC50 (cells [3]): 11.9 µM (active)

CN(C)c1ncc2ncc(=O)n(CCC#N)c2n1
AC50 (Cytochrome P450 2C9): inconclusive

COc1ccc(NC(=O)C2C3CCC(C3)C2C(=O)O)cc1OC (stereo not given)
Ki (fMet-Leu-Phe receptor): > 66.7 µM (inactive)

CC1CCCC(NC(=O)CCn2c(=O)oc3ccccc32)C1C (stereo not given)
AC50 (Cytochrome P450 2C19): 4.47 µM (inconclusive)
AC50 (Cytochrome P450 2C9): inconclusive

CC12CN3CC(C)(CN(C1)C3c1ccc(Cl)cc1Cl)C2O (stereo not given)
EC50 [4]: 4.22 µM (active)

CCOC(=O)c1oc2cc(O)ccc2c(=O)c1-c1ccccc1OC
Ki (fMet-Leu-Phe receptor): > 66.7 µM (inactive)

CCCS(=O)(=O)N1CCCC(C(=O)N2CCC(Cc3ccccc3)CC2)C1 (stereo not given)
Ki (fMet-Leu-Phe receptor): > 66.7 µM (inactive)
EC50 [5]: > 195 µM (not active)

CCN(CC)S(=O)(=O)c1cc(NC(=O)CNc2cccc(S(=O)(=O)N3CCCC3)c2)ccc1C
AC50 [6]: 0.648 µM (active)
AC50 [7]: > 70 µM (inactive)
AC50 (INS1): 5.23 µM (active)
AC50 [8]: 1.2 µM (active)
IC50 [9]: > 80 µM (inactive)

CC(C)COCC1CC2(CC(C)(c3csc(N)n3)OC2=O)C(=O)O1 (stereo not given)
AC50 (Cytochrome P450 2C9): inconclusive

CCOC(=O)Cc1cc(O)n2nc(C)c(-c3ccc(OC)cc3)c2n1
Ki (fMet-Leu-Phe receptor): 18.3 µM (inactive)

N#CC1=C(N)N=C(S)C(C(N)=O)C1c1ccc(Cl)cc1Cl (stereo not given)
IC50 [1]: 13.3 µM (active)
IC50 [2]: > 50 µM (inactive)

CN1CCN(CCCNC(=O)Nc2cccc3ccccc23)CC1
Ki (fMet-Leu-Phe receptor): > 66.7 µM (inactive)

CCOc1ccccc1NC(=O)Cn1nnc(C(=O)NCc2ccco2)c1N
EC50 [10]: 2.65 µM (active)
EC50 [11]: 0.216 µM (active)
EC50 (BJ [12]): 3.17 µM (active)
EC50 (BJ [13]): 2.66 µM (inconclusive)
EC50 [14]: 0.109 µM (active)
EC50 (BJ [15]): 1.81 µM (inconclusive)
IC50 [9]: > 80 µM (inactive)
EC50 [16]: 0.134 µM (active)

COc1ccc(C)cc1NC1=NC(C)(C)CS1
EC50 [4]: 7.5 µM (active)

Cc1nn(C)cc1CNC(=O)CCC(=O)O
AC50 (Cytochrome P450 2C9): inconclusive

O=C(c1ccc(Cl)cc1)N(Cc1cccs1)C1CCS(=O)(=O)C1 (stereo not given)
Ki (fMet-Leu-Phe receptor): > 66.7 µM (inactive)

O=C(N/N=C/c1ccncc1)c1ccc(NC(=O)c2ccc(Cl)cc2)cc1
IC50 [1]: > 56.8 µM (not active)
IC50 [2]: > 50 µM (inactive)

COc1ccc(-c2cc(C(F)(F)F)nc(N3CCN(c4ccccc4)CC3)n2)cc1OC
Ki (fMet-Leu-Phe receptor): > 66.7 µM (inactive)

Cc1cc(C(=O)N/N=C/c2cc(N=Nc3ccccc3)ccc2O)[nH]n1
EC50 [11]: 13 µM (active)
EC50 (cells [17]): 11.5 µM (active)
EC50 [18]: 2.04 µM (active)
IC50 [1]: 10.9 µM (active)
EC50 (Streptococcus): 1.92 µM (active)
IC50 [19]: 2.22 µM (active)
AC50 (INS1): 1.22 µM (active)
EC50 [14]: 9.08 µM (active)
EC50 (cells [20]): 27.9 µM (active)
IC50 [2]: > 50 µM (inactive)
EC50 [16]: 10.7 µM (active)

O=C(N/N=C/C=C/c1ccccc1)c1ccncc1
IC50 (cells [3]): 0.48 µM (active)

COc1ccc(OC)c(/C=N/NC(=O)c2csc3ccccc23)c1
AC50 (Cytochrome P450 2D6): 20 µM (inconclusive)
AC50 (Cytochrome P450 2C9): inconclusive

COc1ccc(C#Cc2cccc(-c3nc(C(=O)N[C@@H]4CCN(Cc5ccccc5)C4)cc4c3[C@H](CCO)N([S+]([O-])C(C)(C)C)C4)c2)cc1OC (stereo not given in full)
AC50 [21]: 4.45 µM (active)

C/C=C/c1ccc2c(c1)[C@@H]1[C@@H](CCN1S(=O)(=O)c1ccccc1C)[C@H](CO)N2
AC50 [21]: 7.49 µM (active)

C[C@@H]1CN([C@@H](C)CO)S(=O)(=O)c2ccc(C#Cc3ccncc3)cc2O[C@H]1CN(C)S(=O)(=O)c1ccc(F)cc1
AC50 [21]: 2.95 µM (active)

COCC(=O)N1CC2(C1)CN(Cc1ccccc1F)[C@H](CO)c1[nH]c3cc(OC)ccc3c12
AC50 [21]: 11.5 µM (active)

CN(C)c1nc(N(C)C)nc(N(C)C)n1 [ALTRETAMINE]
GI50 (P388/ADR): > 136 µM (inactive)
Ki (fMet-Leu-Phe receptor): > 66.7 µM (inactive)
GI50 (P388): > 106 µM (inactive)
GI50 (SN12K1): > 150 µM (inactive)

Cc1cc(O)c(C=O)c2c1C(=O)Oc1c(CO)c(O)c3c(c1O2)C(O)OC3=O (stereo not given) [SLAZINIC ACID]
IC50 (Large T antigen): 17.5 µM (active)
IC50 [1]: 14.8 µM (active)
IC50 [2]: 12.5 µM (active)
